Reference: ChEMBL document CHEMBL1126453, “Synthesis and anti-herpes activity of 5-trifluorovinyl-2-deoxyuridine” (1992)

How the values were obtained:
[1] = Minimum antiviral concentration required to reduce virus-induced cytopathogenicity against HSV-1 (KOS) in E6SM cells; assay type: functional
[2] = Minimum antiviral concentration required to reduce virus-induced cytopathogenicity against HSV-2 (G) in E6SM cells; assay type: functional
[3] = Minimum antiviral concentration required to reduce virus-induced cytopathogenicity against TK' HSV-1 (B2006) in E6SM cells; assay type: functional
[4] = Minimum antiviral concentration required to reduce virus-induced cytopathogenicity against TK' HSV-1 (VMW 1837) in E6SM cells; assay type: functional
[5] = Minimum antiviral concentration required to reduce virus-induced cytopathogenicity against Vaccinia virus in E6SM cells; assay type: functional
[6] = Minimum cytotoxic concentration required to cause alteration of normal E6SM cell culture morphology; assay type: functional; details: read-out: Min cytotoxic concentration
[7] = system: HEL; assay: Minimum antiviral concentration required to reduce virus-induced cytopathogenicity against TK' VZV (07/1) in HEL cells; assay type: functional, Homo sapiens
[8] = system: HEL; assay: Minimum antiviral concentration required to reduce virus-induced cytopathogenicity against TK' VZV (YS/R) in HEL cells; assay type: functional, Homo sapiens
[9] = system: HEL; assay: Minimum antiviral concentration required to reduce virus-induced cytopathogenicity against VZV (OKA) in HEL cells; assay type: functional, Homo sapiens
[10] = system: HEL; assay: Minimum antiviral concentration required to reduce virus-induced cytopathogenicity against VZV (YS) in HEL cells; assay type: functional, Homo sapiens
[11] = system: HEL; assay: Minimum cytotoxic concentration required to cause alteration of normal human […] (HEL) morphology in HEL cells; assay type: functional; details: read-out: Min cytotoxic concentration
[12] = Minimum antiviral concentration required to reduce virus-induced cytopathogenicity against TK-HSV-1 (B2006) in E6SM cells; assay type: functional
[13] = Minimum antiviral concentration required to reduce virus-induced cytopathogenicity against vaccinia virus in E6SM cells; assay type: functional
[14] = system: HEL; assay: Minimum cytotoxic concentration required to cause alteration of normal human […] (HEL) morphology; assay type: functional; details: read-out: Min cytotoxic concentration

**Q.** Which Min antiviral concentration [1] does the source give for O=c1[nH]c(=O)n([C@H]2C[C@H](O)[C@@H](CO)O2)cc1/C=C/Br [BRIVUDINE] here?
**A.** 0.02 µg/mL

**Q.** And the Min antiviral concentration [2]?
**A.** 100 µg/mL

**Q.** What about the Min antiviral concentration [3] of the same molecule?
**A.** 100 µg/mL

**Q.** And the Min antiviral concentration [4]?
**A.** 40 µg/mL

**Q.** What about the Min antiviral concentration [5] of the same molecule?
**A.** 0.3 µg/mL

**Q.** And the MCC [6]?
**A.** 200 µg/mL

**Q.** What about the Min antiviral concentration [7] of the same molecule?
**A.** >10 µg/mL

**Q.** And the Min antiviral concentration [8]?
**A.** >10 µg/mL

**Q.** And the Min antiviral concentration [9]?
**A.** 0.002 µg/mL

**Q.** And the Min antiviral concentration [10]?
**A.** 0.004 µg/mL

**Q.** And the MCC [11]?
**A.** 200 µg/mL

**Q.** What does the source list for O=c1[nH]c(=O)n([C@H]2C[C@H](O)[C@@H](CO)O2)cc1C(F)=C(F)F?
**A.** Min antiviral concentration [1]: 0.05 µg/mL; Min antiviral concentration [2]: 13 µg/mL; Min antiviral concentration [4]: 1.5 µg/mL; Min antiviral concentration [12]: 13 µg/mL; Min antiviral concentration [13]: 8 µg/mL; MCC [6]: 100 µg/mL; Min antiviral concentration [7]: 13.6 µg/mL; Min antiviral concentration [8]: 11.6 µg/mL; Min antiviral concentration [9]: 0.16 µg/mL; Min antiviral concentration [10]: 0.55 µg/mL; MCC [14]: 10 µg/mL
